In data set [1] the test system is Staphylococcus aureus 503. Description: In Vitro Anti-Bacterial Activity Test (MIC, agar dilution). The following applies: Staphylococcus aureus 503; Muller-Hinton agar, 37° C., 18 hours; read-out: MIC. It is filed as cell-based. Summed up:
(§1)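 MIC was determined by agar dilution on Mueller-Hinton agar. Each strain was inoculated at 10^7 C.F.U./ml, and growth was observed after 18 hours at 37° C, with ciprofloxacin as control agent.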

In data set [2] the test system is Staphylococcus aureus 285. The data set is described as above. Format: cell-based. The following applies: Staphylococcus aureus, 285, 18 h, Staphylococcus aureus 285; Muller-Hinton agar, 37° C., 18 hours; read-out: MIC. Summed up: as §1
Data set [3] deals with Salmonella typhimurium. The description is as above. It is filed as cell-based. The following applies: Salmonella enterica; Salmonella typhimurium; Muller-Hinton agar, 37° C., 18 hours; read-out: MIC. Summed up:
as §1

Data set [4] concerns Klebsiella oxytoca 1082E. The data set is described as above. Format: cell-based. The following applies: Klebsiella oxytoca 1082E; Muller-Hinton agar, 37° C., 18 hours; read-out: MIC. Summed up:
as §1

Data set [5] deals with Pseudomonas aeruginosa 1592E. The description is as above. Format: cell-based. The following applies: Muller-Hinton agar, 37° C., 18 hours, read-out: MIC. Summed up:
as §1

Data set [6] has as its system Enterobacter cloacae P99. Described as above. It is filed as cell-based. The following applies: Enterobacter cloacae, P99, 18 h. Summed up:
(§2)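 Minimum inhibitory concentrations were determined by dilution of test compounds in Muller-Hinton agar, onto which 10^7 C.F.U./ml bacterial suspensions were inoculated and incubated at 37° C. for 18 hours.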

For data set [7], the system named is Enterobacter cloacae 1321E. The data set is described as above. Format: cell-based. Summed up:
as §1

Data set [8] relates to Streptococcus pyogenes 308A. The data set is described as above. It is filed as cell-based. The following applies: Muller-Hinton agar, 37° C., 18 hours, read-out: MIC. Summed up:
as §1

In data set [9] the test system is Pseudomonas aeruginosa 1771M. Described as above. It is filed as cell-based. The following applies: Pseudomonas aeruginosa, 1771M, 18 h, Muller-Hinton agar, 37° C. Summed up: as §1
In data set [10] the test system is Staphylococcus aureus SG511. The description is as above. Format: cell-based. The following applies: Staphylococcus aureus SG511; Muller-Hinton agar, 37° C., 18 hours; read-out: MIC. Summed up: as §1
Data set [11] relates to Escherichia coli 078. The description is as above. Format: cell-based. The conditions noted are these: Escherichia coli 078; Muller-Hinton agar, 37° C., 18 hours; read-out: MIC. Summed up:
as §1

The test system of data set [12] is Escherichia coli 1507E. The description is as above. Format: cell-based. The following applies: Muller-Hinton agar, 37° C. Summed up:
as §1

Data set [13] relates to Pseudomonas aeruginosa 1771. The data set is described as above. It is filed as cell-based. The following applies: Pseudomonas aeruginosa 1771; Muller-Hinton agar, 37° C., 18 hours; read-out: MIC. Summed up: as §1
In data set [14] the test system is Escherichia coli TEM. The data set is described as above. Format: cell-based. The conditions noted are these: Escherichia coli, 18 h, Muller-Hinton agar, 37° C. Summed up:
as §2

The test system of data set [15] is Klebsiella aerogenes 1522E. The description is as above. The following applies: Klebsiella aerogenes, 1522E, 18 h, Klebsiella aerogenes 1522E; Muller-Hinton agar, 37° C., 18 hours; read-out: MIC. Format: cell-based. Summed up:
as §1

For data set [16], the system named is Escherichia coli DC0. The data set is described as above. Format: cell-based. The conditions noted are these: Muller-Hinton agar, 37° C., 18 hours, read-out: MIC. Summed up:
as §1

The test system of data set [17] is Streptococcus faecium MD8b. Described as above. It is filed as cell-based. The conditions noted are these: Enterococcus faecium, Muller-Hinton agar, 37° C., 18 hours, read-out: MIC. Summed up:
as §1

Data set [18] concerns Streptococcus pyogenes 77A. Described as above. Format: cell-based. The conditions noted are these: Streptococcus pyogenes 77A; Muller-Hinton agar, 37° C., 18 hours; read-out: MIC. Summed up:
as §1

Data set [19] relates to Escherichia coli DC2. The data set is described as above. It is filed as cell-based. The conditions noted are these: Escherichia coli, DC2, 18 h. Summed up: as §1
The subject of data set [20] is Pseudomonas aeruginosa 9027. Described as above. Format: cell-based. The conditions noted are these: Muller-Hinton agar, 37° C., 18 hours, read-out: MIC. Summed up: as §1
Data set [21] concerns P. mirabilis. Description: Treatment Effect on the Systemic Infection. It is filed as in vivo, NMRI mice. The following applies: Proteus mirabilis, in Mus musculus, 240 h. As for the experimental part:
(§3) 10 fold of the pathogens which lead to 100% lethality were injected intraperitoneally to male and female NMRI mice weighing 18 to 20 g. Immediately and 4 hours after injection, the dose of test compounds, which was determined by two-fold serial dilution method, was administered orally or subcutaneously to the mice, and on the 10th day, the effect was evaluated in terms of ED50 calculated from the number of survived mice by the probit analysis.

Data set [22] is described as follows: Acute Toxicity Test. The following applies: mouse, in vivo, ICR mice, 14th day. As for the experimental part: Test compounds were administered to ICR mice weighing 20 to 25 g. On 14th day, LD50 was calculated from the number of survived mice by the probit analysis.
Data set [23] has as its system S. aureus 17740. The experiment in a line: Treatment Effect on the Systemic Infection. Format: in vivo, NMRI mice. The conditions noted are these: 240 h. Here is the method:
as §3

Where [24] appears, read: Enterobacter cloacae 1321E, Muller-Hinton agar, 37° C., 18 hours, read-out: MIC.
[25] abbreviates: P. mirabilis, oral, immediately and 4 hours after infection, survival on 10th day, read-out: ED50 Oral Administration.
Where [26] appears, read: sc, P. mirabilis, subcutaneous, immediately and 4 hours after infection, survival on 10th day, read-out: ED50 Subcutaneous Injection.
[27] abbreviates: ip, read-out: Acute Toxicity LD50, Peritomeo Injection.
Setting [28] is: oral, read-out: Acute Toxicity LD50, Oral Administration.
The mark [29] stands for this setting: Staphylococcus aureus, in Mus musculus, S. aureus 17740, oral, immediately and 4 hours after infection, survival on 10th day, read-out: ED50 Oral Administration.
[30] abbreviates: Staphylococcus aureus, in Mus musculus, sc, S. aureus 17740, subcutaneous, immediately and 4 hours after infection, survival on 10th day, read-out: ED50 Subcutaneous Injection.

Structures can show the parent of a compound that is named as a salt. Where two headings read alike, the source gives them in different places.

For the compound `O=C(C[N+](=O)[O-])c1cn(C2CC2)c2c(Cl)c(N3CC4=C(CNC4)C3)c(F)cc2c1=O` [Example 34, 1-cyclopropyl-6-fluoro-8-chloro-7-(3,7-diazabicyclo[3.3.0]oct-1,5-en-3-yl)-3-(2-nitroacetyl)-1,4-dihydro-4-oxoquinoline hydrochloride], the MIC (in general, the smallest concentration in the dilution series that meets the test's criterion for growth inhibition) in data set [1] was 0.098 µg/mL; in data set [2], 0.049 µg/mL; in data set [3], 0.004 µg/mL; in data set [4], less than 0.002 µg/mL; in data set [5], 0.391 µg/mL; in data set [6] it was 0.007 µg/mL. Besides, the MIC is 0.049 µg/mL in [7] (setting [24]); 0.391 µg/mL in [8]; 0.098 µg/mL in [9]; 0.025 µg/mL in [10]; less than 0.002 µg/mL in [11]; 0.007 µg/mL in data set [12] (Escherichia coli, 1507E, 18 h). Also, the minimal inhibitory concentration (MIC) came out at 0.195 µg/mL in data set [13]; 0.007 µg/mL in [14]; 0.013 µg/mL in data set [15]; 0.195 µg/mL in data set [16]; 0.098 µg/mL in data set [17]; 0.098 µg/mL in data set [18]. The results for the minimum inhibitory concentration (MIC) in data set [19] and in [20] were 0.098 µg/mL and 0.391 µg/mL, respectively. For the same compound, the values for the ED50 in data set [21] (setting [25]) and in [21] (setting [26]) were 0.41 mg/kg and 0.16 mg/kg, respectively. Besides, the values for the LD50 at 336 h in data set [22] (setting [27]) and in [22] (setting [28]) were 620 mg/kg and 4000 mg/kg, respectively.

For the compound `CNCC1=CCN(c2c(F)cc3c(=O)c(C(=O)C[N+](=O)[O-])cn(C4CC4)c3c2Cl)C1` [Example 16, 1-cyclopropyl-6-fluoro-8-chloro-7-(3-methylaminomethyl-2,5-dihydropyrrol-1-yl)-3-(2-nitroacetyl)-1,4-dihydro-4-oxoquinoline hydrochloride], the minimal inhibitory concentration (MIC) in [1] was less than 0.002 µg/mL; in data set [2], 0.004 µg/mL; in [3] it was less than 0.02 µg/mL; in [4], 0.007 µg/mL; in data set [5], 0.781 µg/mL; in data set [6], 0.007 µg/mL. Further, the minimum inhibitory concentration (MIC) was 0.007 µg/mL in data set [7] (Enterobacter cloacae, 1321E, 18 h); 0.098 µg/mL in data set [8]; 0.195 µg/mL in data set [9]; 0.004 µg/mL in [10]; 0.004 µg/mL in [11]; 0.013 µg/mL in data set [12] (Escherichia coli, 1507E, 18 h). Moreover, the MIC in [13] was 0.391 µg/mL; in [14], 0.004 µg/mL; in [15], 0.013 µg/mL; in data set [16], 0.098 µg/mL; in data set [17], 0.013 µg/mL; in data set [18] it was 0.025 µg/mL. Moreover, the minimal inhibitory concentration (MIC) in data set [19] was 0.013 µg/mL; in [20] it was 0.781 µg/mL. In addition, the ED50 was found to be 49.7 mg/kg in [23] (setting [29]) and 97.6 mg/kg in data set [23] (setting [30]). Further, the LD50 at 336 h in data set [22] (setting [27]) was determined as 605 mg/kg; in data set [22] (setting [28]), 3800 mg/kg.

`CC1COc2c(N3CCN(C)CC3)c(F)cc3c(=O)c(C(=O)O)cn1c23` (stereo not drawn) [Ofloxacin, reference compound]: the ED50 was greater than 200 mg/kg in data set [23] (setting [29]), 200 mg/kg in [23] (setting [30]), 1.64 mg/kg in [21] (setting [25]) and 0.33 mg/kg in data set [21] (setting [26]).

For the compound `O=C(O)c1cn(C2CC2)c2cc(N3CCNCC3)c(F)cc2c1=O` [Ciprofloxacin, reference compound], the ED50 in data set [23] (Staphylococcus aureus, 17740, in Mus musculus, po, read-out: ED50 Oral Administration) is greater than 200 mg/kg; in [21] (po, read-out: ED50 Oral Administration) it was 0.82 mg/kg; in [21] (sc, read-out: ED50 Subcutaneous Injection) it was 0.16 mg/kg.

In the case of `N[C@H]1CCN(c2c(F)cc3c(=O)c(C(=O)C[N+](=O)[O-])cn(C4CC4)c3c2Cl)C1` [Example 13, 1-cyclopropyl-6-fluoro-8-chloro-7-(3-3S-aminopyrrolidin-1-yl)-3-(2-nitroacetyl)-1,4-dihydro-4-oxoquinoline hydrochloride], the minimum inhibitory concentration (MIC) is 0.049 µg/mL in data set [1]; 0.025 µg/mL in [2]; less than 0.002 µg/mL in data set [3]; less than 0.002 µg/mL in [4]; 0.195 µg/mL in data set [5]; 0.004 µg/mL in data set [6]. For the same compound, the MIC in data set [7] (setting [24]) was less than 0.002 µg/mL; in [8], 0.195 µg/mL; in data set [9], 0.049 µg/mL; in data set [10], 0.025 µg/mL; in [11], less than 0.002 µg/mL; in data set [12] (18 hours, read-out: MIC), 0.004 µg/mL. The MIC in data set [13] is 0.195 µg/mL; in data set [14] it was less than 0.002 µg/mL; in [15] it was 0.013 µg/mL; in [16], 0.049 µg/mL; in [17], 0.195 µg/mL; in [18], 0.195 µg/mL. The MIC in data set [19] stood at 0.013 µg/mL; in data set [20], 0.195 µg/mL. Moreover, the ED50 was 128 mg/kg in data set [23] (setting [29]), 16.8 mg/kg in [23] (setting [30]), 0.21 mg/kg in data set [21] (setting [25]) and 0.08 mg/kg in data set [21] (setting [26]). The LD50 at 336 h in data set [22] (setting [27]) turned out to be 580 mg/kg; in [22] (setting [28]) it was 3800 mg/kg.

Values taken from patent US5409933A, “Quinoline derivatives and processes for preparing the same” (priority 1993, dated 1995).
